According to patent publication US20250161308A1, “Methods of Treating Covid-Related Disorders” (priority 2022, published 2025):
Where two headings read alike, the source gives them in different places. Where a SMILES comes first, the peptide text is derived from it. [ ]: non-standard residue; d: D form. The star is where a group is joined. Hexanoyl = CCCCCC(=O)*; Ahx = NCCCCCC(=O)O

How the values were obtained:
Rat hippocampal neurons [1] = assay: Neurite outgrowth assay; assay type: cell-based
[2] = tested on: THP1-differentiated macrophages; assay type: cell-based, human; parameters: key to Significant reduction in IL-6 / Significant reduction in TNF-α / Significant reduction in IL-1β: NS: indicates a non-significant reduction in the indicated cytokine; +: indicates a p value<0.05 in Tukey post test; ++: indicates a p value<0.01 in Tukey post test; details: for Significant reduction in IL-1β / Significant reduction in IL-6 / Significant reduction in TNF-α: 24 hrs LPS
[3] = tested on: Rat primary cortical neuron cultures; assay type: cell-based; details: for Significance of neuroprotection vs 1 uM LPS: 24 h LPS
[4] = tested on: pulmonary LPS-stimulated rats; assay: Immune cell infiltration in BALF, LPS acute pulmonary inflammation; assay type: in vivo, rat; details: rat, in vivo
[5] = tested on: pulmonary LPS-stimulated rats; assay: Cytokine expression in BALF supernatant (multiplex immunoassay), LPS acute pulmonary inflammation; assay type: in vivo, rat; details: 3 mg/kg IP
[6] = tested on: LPS-induced cognitive deficit in CD-1 mice; assay: Rodent LPS model of brain inflammation, T-maze spontaneous alternation; assay type: in vivo, mouse; details: for Recovery (%) / Spontaneous alternation (%) Mean: LPS 250 μg/kg
[7] = tested on: bleomycin-induced pulmonary fibrosis in C57BL/6 mice; assay: Bleomycin-induced pulmonary fibrosis; assay type: in vivo, mouse
Rat hippocampal neurons [8] = assay: Synaptogenesis assay; assay type: cell-based
[9] = 100 mg/kg po BID, right lung homogenate

CCCCCC(=O)N[C@@H](Cc1ccc(O)cc1)C(=O)N[C@H](C(=O)NCCCCCC(N)=O)[C@@H](C)CC [A19 active metabolite, N-hexanoic-Tyr-Ile-(6)aminohexanoic amide] (Hexanoyl-Tyr-Ile-[Ahx]-NH2)
neurite length / extension of neurites (in words) (Rat hippocampal neurons [1]): promoted the extension of neurites | Significant increase in: Neurite length (Rat hippocampal neurons [1]; 10 nM, Table 3 study): ++++ (++++ = p < 0.0001) | Significant reduction in IL-1β ([2]; 0.1 nM): NS | Significant reduction in IL-6 ([2]; 0.1 nM): NS | Significant reduction in TNF-α ([2]; 0.1 nM): NS | Significant reduction in IL-1β ([2]; 10 nM): ++ (indicates a p value<0.01 in Tukey post test) | Significant reduction in IL-6 ([2]; 10 nM): + (indicates a p value<0.05 in Tukey post test) | Significant reduction in TNF-α ([2]; 10 nM): + (indicates a p value<0.05 in Tukey post test) | Significant reduction in IL-1β ([2]; 1000 nM): + (indicates a p value<0.05 in Tukey post test) | Significant reduction in IL-6 ([2]; 1000 nM): ++ (indicates a p value<0.01 in Tukey post test) | Significant reduction in TNF-α ([2]; 1000 nM): ++ (indicates a p value<0.01 in Tukey post test) | expression of IL-1β (in words) ([2]; at at least one tested dose): significantly reduced the expression of IL-1β and TNF-α | expression of IL-6 (in words) ([2]; at at least one tested dose): significantly reduced the expression of IL-6 | expression of TNF-α (in words) ([2]; at at least one tested dose): significantly reduced the expression of IL-1β and TNF-α | Significance of neuroprotection vs 1 uM LPS ([3]; 0.1 nM): +++ (+++ indicates p<0.001) | Significance of neuroprotection vs 1 uM LPS ([3]; 1 nM): ++ (++ indicates p<0.01) | Significance of neuroprotection vs 1 uM LPS ([3]; 10 nM): +++ (+++ indicates p<0.001) | Significance of neuroprotection vs 1 uM LPS ([3]; 100 nM): ++ (++ indicates p<0.01) | Significance of neuroprotection vs 1 uM LPS ([3]; 1 μM): ++ (++ indicates p<0.01) | protection of primary neurons from LPS-stimulated inflammatory toxicity ([3]; at at least one dose tested): protected primary neurons from LPS-stimulated inflammatory toxicity

C[C@]12CCC(=O)C[C@@H]1CC[C@@H]1[C@@H]2CC[C@]2(C)[C@@H](O)CC[C@@H]12 [DHT, alpha-dihydrotestosterone, reference compound]
Significant increase in: Neurite length (Rat hippocampal neurons [1]): + (key: NS = not significant; + = p < 0.05; ++++ = p < 0.0001)

C[C@@H]1C[C@H]2[C@@H]3CCC4=CC(=O)C=C[C@]4(C)[C@@]3(F)[C@@H](O)C[C@]2(C)[C@@]1(O)C(=O)CO [Dex, Dexamethasone]
Neutrophils in BALF, reduction vs disease control [4]: +++ (key: + = >5% reduction in cell count vs disease control; ++ = >25% reduction in cell count vs disease control; +++ = >75% reduction in cell count vs disease control) | Total Leukocytes in BALF, reduction vs disease control [4]: +++ (key: + = >5% reduction in cell count vs disease control; ++ = >25% reduction in cell count vs disease control; +++ = >75% reduction in cell count vs disease control) | CCL2, significant change in expression in BALF supernatant [5]: + (+ = Significant change in cytokine quantification, p < 0.05 by Student's T-test.) | CCL3, significant change in expression in BALF supernatant [5]: + (+ = Significant change in cytokine quantification, p < 0.05 by Student's T-test.) | CCL5, significant change in expression in BALF supernatant [5]: + (+ = Significant change in cytokine quantification, p < 0.05 by Student's T-test.) | CCL11, significant change in expression in BALF supernatant [5]: + (+ = Significant change in cytokine quantification, p < 0.05 by Student's T-test.) | CX3CL1, significant change in expression in BALF supernatant [5]: + (+ = Significant change in cytokine quantification, p < 0.05 by Student's T-test.) | CXCL1, significant change in expression in BALF supernatant [5]: + (+ = Significant change in cytokine quantification, p < 0.05 by Student's T-test.) | CXCL5, significant change in expression in BALF supernatant [5]: + (+ = Significant change in cytokine quantification, p < 0.05 by Student's T-test.) | CXCL10, significant change in expression in BALF supernatant [5]: + (+ = Significant change in cytokine quantification, p < 0.05 by Student's T-test.) | EGF, significant change in expression in BALF supernatant [5]: + (+ = Significant change in cytokine quantification, p < 0.05 by Student's T-test.) | IFN-γ, significant change in expression in BALF supernatant [5]: + (+ = Significant change in cytokine quantification, p < 0.05 by Student's T-test.) | IL-1α, significant change in expression in BALF supernatant [5]: + (+ = Significant change in cytokine quantification, p < 0.05 by Student's T-test.) | IL-1β, significant change in expression in BALF supernatant [5]: + (+ = Significant change in cytokine quantification, p < 0.05 by Student's T-test.) | IL-5, significant change in expression in BALF supernatant [5]: + (+ = Significant change in cytokine quantification, p < 0.05 by Student's T-test.) | IL-6, significant change in expression in BALF supernatant [5]: + (+ = Significant change in cytokine quantification, p < 0.05 by Student's T-test.) | IL-10, significant change in expression in BALF supernatant [5]: + (+ = Significant change in cytokine quantification, p < 0.05 by Student's T-test.) | IL-12p70, significant change in expression in BALF supernatant [5]: + (+ = Significant change in cytokine quantification, p < 0.05 by Student's T-test.) | IL-13, significant change in expression in BALF supernatant [5]: + (+ = Significant change in cytokine quantification, p < 0.05 by Student's T-test.) | IL-17A, significant change in expression in BALF supernatant [5]: + (+ = Significant change in cytokine quantification, p < 0.05 by Student's T-test.) | TNF-α, significant change in expression in BALF supernatant [5]: + (+ = Significant change in cytokine quantification, p < 0.05 by Student's T-test.)

CC12CC3CC(C)(C1)CC(N)(C3)C2 [Memantine, reference compound]
Recovery (%) ([6]; 0.1 mg/kg i.p. 14 days): 76% | Spontaneous alternation (%) Mean ([6]; 0.1 mg/kg i.p. 14 days): 63.6% | Spontaneous alternation (%) Mean ([6]; 0.1 mg/kg i.p. 14 days, listed as memantine): 64% | Recovery (%) ([6]; 1 mg/kg i.p. 14 days): 38% | Spontaneous alternation (%) Mean ([6]; 1 mg/kg i.p. 14 days): 54.3% | Spontaneous alternation (%) Mean ([6]; 1 mg/kg i.p. 14 days, listed as memantine): 54% | significance of reversal of LPS-induced cognitive deficit (in words) ([6]; T-maze): significant at both doses

Cc1ccc(=O)n(-c2ccccc2)c1 [Pirfenidone, reference compound]
Right Lung Weight, improvement versus disease control ([7]; 100 mg/kg po BID, day 21): + (+ => 5-25% improvement v disease control) | Collagen, improvement versus disease control [7, 9]: ++ (++ => 26-50% improvement v disease control) | TGF-Beta, improvement versus disease control [7, 9]: +++ (+++ => 51-100% improvement v disease control) | protection against bleomycin-induced increases in TGF-β (in words) ([7]; all doses, day 21): significantly protected against bleomycin-induced increases in TGF-β | protection against body weight loss (in words) ([7]; all treatment groups): did not protect against body weight loss

HGF: hepatocyte growth factor, used as a positive control at 5 ng/ml
neurite length / extension of neurites (in words) (Rat hippocampal neurons [1]): increase both neurite length and synapse count | Significant increase in: Neurite length (Rat hippocampal neurons [1]; 5 ng/ml, Table 4 study): +++ (+++ = p < 0.0005) | synapse counts (in words) (Rat hippocampal neurons [8]): increase both neurite length and synapse count | Significant increase in: Synapses (Rat hippocampal neurons [8]; 5 ng/ml, Table 4 study): ++++ (++++ = p < 0.0001)
